Results on eight compounds are retold here after US7268146B2, “Ring fused pyrazole derivatives as CRF antagonists” (Palo Alto LLC, priority 2001, dated 2007).

The term melting point denotes the temperature, or range, at which the solid turns liquid.

Data set [1] concerns the target T1, hCRF1 (Homo sapiens, UniProt P34998).
T1 construct: Celll membranes are prepared according the method of Dieterich and DeSouza (1996); endogenous in cells; host or cells: human IMR-32 neuroblastoma cells (membrane preparation)
T1 sequence (P34998 24-415): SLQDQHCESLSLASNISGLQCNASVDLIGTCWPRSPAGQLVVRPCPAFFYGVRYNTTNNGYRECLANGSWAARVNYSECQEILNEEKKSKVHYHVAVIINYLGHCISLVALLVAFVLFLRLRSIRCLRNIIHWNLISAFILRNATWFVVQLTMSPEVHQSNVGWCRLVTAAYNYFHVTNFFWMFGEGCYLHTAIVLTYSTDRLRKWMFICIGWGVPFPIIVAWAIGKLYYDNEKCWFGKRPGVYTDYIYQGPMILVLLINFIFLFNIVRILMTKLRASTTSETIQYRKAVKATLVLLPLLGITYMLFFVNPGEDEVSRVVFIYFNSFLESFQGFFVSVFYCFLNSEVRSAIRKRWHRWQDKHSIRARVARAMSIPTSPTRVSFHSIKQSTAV
Nature of the data set: CRF Receptor Binding Assay. Particulars: CRF1 receptor binding affinity (table title); read-out: hCRF1 (pIC50) (converted). As to the method:
Human IMR-32 neuroblastoma cells are grown to 80% confluence in MEM medium containing 10% heat-inactivated FBS, 1 mM Sodium Pyruvate, and 0.1 mM nonessential amino acids. Celll membranes are prepared according the method of Dieterich and DeSouza (1996). The cells (˜5E+9) are resuspended in 10 volumes of wash buffer (5 mM Tris HCl, 10 mM MgCl2, 2 mM EGTA, pH 7.4 at RT), homogenized with a Polytron, and then centrifuged at 45,000 G for 20 min at 4° C. The membrane pellets are washed twice with wash buffer (45,000 G for 20 min at 4° C.) and then resuspended (50 mM Tris HCl, 10 mM MgCl2, 2 mM EGTA, pH 7.4 at RT). Protein concentration is determined using Pierce reagents and BSA as standard. Aliquots of 1-1.5 ml are stored at −80° C. until binding assay.
The competition binding assay is performed in a final volume of 250 μl, which contains assay buffer (50 mM Tris-HCl, 10 mM MgCl2, 2 mM EGTA, 0.2% BSA, 0.1 mM bacitracin and 100 kIU/ml aprotinin pH 7.2 at R.T.), 0.05 nM [^125I]Tyr^0-ovine CRF (Du Pont New England Nuclear), 50 μg of membrane protein, and test compound at various concentrations. Non-specific binding is determined with 1 uM hCRF. Binding reactions are terminated after 2 hr incubation at 25° C. by filtering through 96-w GF/C filter plate using a Packard Harvester (Filtermate 196). The 96-w filter plate is pre-treated with 0.3% polyethyleneimine and pre-washed with washing buffer (50 mM Tris-HCl, 10 mM MgCl2, 2 mM EGTA, 0.2% BSA, pH 7.2 at 4° C.). Unbound radioactivity is removed by four rapid washes (0.8 ml/well) with wash buffer. The radioactivity is quantified using a Packard TopCount. Data are analyzed using non-linear iterative curve fitting to obtain IC50 and Hill slope values. PKi values are derived from pIC50 values (−log of IC50).

Counter-ions that a name gives are not always drawn.

Take `CCCN(Cc1ccco1)c1c2c(nn1C)N(c1c(C)cc(C)cc1Cl)CCC2` [Example 9c, [7-(2-Chloro-4,6-dimethyl-phenyl)-2-methyl-4,5,6,7-tetrahydro-2H-pyrazolo[3,4-b]pyridin-3-yl]-furan-2-ylmethyl-propyl-aminetrifluoroacetic acid salt]: the IC50 in data set [1] is 832 nM.
As for `CCCC(O)(c1cccs1)c1c2c(nn1C)N(c1c(C)cc(C)cc1C)CCC2` (stereo not drawn) [Example 5c, 1-[2-Methyl-7-(2,4,6-trimethylphenyl)-4,5,6,7-tetrahydro-2H-pyrazolo[3,4-b]pyridin-3-yl]-1-thiophen-2-ylbutan-1-ol], the melting point lay in the range of 175.9 to 178.4 °C. Besides, the IC50 in data set [1] is 11200 nM.
`Cc1cc(C)c(N2CCCc3c2nn(C)c3-c2ccccc2C(F)(F)F)c(C)c1` [Example 13a, 2-Methyl-3-(2-trifluoromethylphenyl)-7-(2,4,6-trimethylphenyl)-4,5,6,7-tetrahydro-2H-pyrazolo[3,4-b]pyridine] displayed a melting point of 59 to 63 °C. Moreover, the IC50 in data set [1] was 776 nM.
On the same counts, the results for `Cc1cc(C)c(N2CCCc3c2nn(C)c3Br)c(Cl)c1` [Example 1, 3-Bromo-7-(2-chloro-4,6-dimethylphenyl)-2-methyl-4,5,6,7-tetrahydro-2H-pyrazolo[3,4-b]pyridine] are 106 to 107 °C and 1070 nM.
Turning to `CC/C=C(\CCC)c1c2c(nn1C)N(c1ccc(Cl)cc1Cl)CCC2` [Example 6e, 7-(2,4-Dichlorophenyl)-2-methyl-3-(1-propylbut-1-enyl)-4,5,6,7-tetrahydro-2H-pyrazolo[3,4-b]pyridine], the IC50 in data set [1] was 234 nM.
`CCCC(CCC)c1c2c(nn1C)N(c1c(C)cc(C)cc1C)CCC2` [Example 7b, 2-Methyl-3-(1-propylbutyl)-7-(2,4,6-trimethylphenyl)-4,5,6,7-tetrahydro-2H-pyrazolo[3,4-b]pyridine] came in with a melting point of 91.5 to 92 °C. Besides, the IC50 in data set [1] was 87.1 nM.
In the case of `CCCC(CCC)Oc1c2c(nn1C)N(c1ccc(Cl)cc1Cl)CCC2` [Example 12b, 7-(2,4-Dichlorophenyl)-2-methyl-3-(1-propylbutoxy)-4,5,6,7-tetrahydro-2H-pyrazolo[3,4-b]pyridinehydrochloride], the IC50 in data set [1] is 27.5 nM.
Regarding `Cc1cc(C)c(N2CCCc3c2nn(C)c3CN2CCc3ccccc3C2)c(C)c1` [Example 11, 2-[2-Methyl-7-(2,4,6-trimethyl-phenyl)-4,5,6,7-tetrahydro-2H-pyrazolo[3,4-b]pyridin-3-ylmethyl]-1,2,3,4-tetrahydroisoquinolinedihydrochloride], in data set [1], the IC50 was 12000 nM.
